Assays:
U87MG-R = assay: CCK8 cell proliferation assay, U87MG-R; format: cell-based; conditions: Homo sapiens, CCK8, 72 h
Experimental: (§1) Cell viability and drug cytotoxicity were determined by a CCK-8 kit (Cell Counting Kit-8, CK04-13, MD, USA) (CCK8, C0005, Target Molecule Corp., MA, USA) reagent. Cells were seeded 2 × 10^3 per well in the 96-well plate for 24 h, followed by treating at different concentrations of compounds for 72 h. Before the experiment, CCK8 was 10-fold diluted with the culture medium and then incubated with cells for 30 min. Finally, the OD was 450 nm absorbance and calculated for cell viability.

T98G (MGMT-positive) = assay: CCK8 cell proliferation assay, T98G; format: cell-based; conditions: Homo sapiens, CCK8, 72 h
Experimental: as §1

Primary Mouse Astrocyte = assay: CCK8 assay, primary culture astrocytes; format: cell-based
Experimental: The human glioblastoma cell lines U87MG (HTB-14), T98G (CRL-1690), and A172 (CRL-1620) were provided by the American Type Culture Collection (Manassas, VA, USA). The patient-derived cell line PT#3 was purified under the approval of the Institutional Review Board of Taipei Medical University (TMU) (No. 201006011). The murine astrocytoma cell line CT-2A (SCC194) was purchased from Merch Millipore (MA, USA). TMZ-resistant cell lines were established as described previously.[40] All cell lines were cultured in Dulbecco’s modified Eagle’s medium basal medium (Cat# 10-013-CM, CORNING, MA, USA), supplemented with 10% fetal bovine serum (Cat# 12676029, Thermo Fisher Scientific, MA, USA), 100 units/mL penicillin, and 100 μg/mL streptomycin (Cat# 15140122, Thermo Fisher Scientific) at 37 °C in the environment of 95% air and 5% carbon dioxide and maintained resistant characteristic with […] of TMZ (Cat# HY-17364, MedChemExpress, NJ, USA). Primary cultured astrocytes and neurons were derived from E17 embryonic mice. […]
Cell viability and drug cytotoxicity were determined by a CCK-8 kit (Cell Counting Kit-8, CK04-13, MD, USA) (CCK8, C0005, Target Molecule Corp., MA, USA) reagent. […] Finally, the OD was 450 nm absorbance and calculated for cell viability.

HDAC6 = target: T1, HDAC6 (Homo sapiens, UniProt Q9UBN7); assay: HDAC enzyme inhibition assay, HDAC6; format: biochemical; conditions: 10-dose, 3-fold serial dilution starting at 10 μM
T1 construct: purchased Reaction Biology Corporation, Malvern, PA (contract assay service)
T1 sequence (Q9UBN7 1-1215): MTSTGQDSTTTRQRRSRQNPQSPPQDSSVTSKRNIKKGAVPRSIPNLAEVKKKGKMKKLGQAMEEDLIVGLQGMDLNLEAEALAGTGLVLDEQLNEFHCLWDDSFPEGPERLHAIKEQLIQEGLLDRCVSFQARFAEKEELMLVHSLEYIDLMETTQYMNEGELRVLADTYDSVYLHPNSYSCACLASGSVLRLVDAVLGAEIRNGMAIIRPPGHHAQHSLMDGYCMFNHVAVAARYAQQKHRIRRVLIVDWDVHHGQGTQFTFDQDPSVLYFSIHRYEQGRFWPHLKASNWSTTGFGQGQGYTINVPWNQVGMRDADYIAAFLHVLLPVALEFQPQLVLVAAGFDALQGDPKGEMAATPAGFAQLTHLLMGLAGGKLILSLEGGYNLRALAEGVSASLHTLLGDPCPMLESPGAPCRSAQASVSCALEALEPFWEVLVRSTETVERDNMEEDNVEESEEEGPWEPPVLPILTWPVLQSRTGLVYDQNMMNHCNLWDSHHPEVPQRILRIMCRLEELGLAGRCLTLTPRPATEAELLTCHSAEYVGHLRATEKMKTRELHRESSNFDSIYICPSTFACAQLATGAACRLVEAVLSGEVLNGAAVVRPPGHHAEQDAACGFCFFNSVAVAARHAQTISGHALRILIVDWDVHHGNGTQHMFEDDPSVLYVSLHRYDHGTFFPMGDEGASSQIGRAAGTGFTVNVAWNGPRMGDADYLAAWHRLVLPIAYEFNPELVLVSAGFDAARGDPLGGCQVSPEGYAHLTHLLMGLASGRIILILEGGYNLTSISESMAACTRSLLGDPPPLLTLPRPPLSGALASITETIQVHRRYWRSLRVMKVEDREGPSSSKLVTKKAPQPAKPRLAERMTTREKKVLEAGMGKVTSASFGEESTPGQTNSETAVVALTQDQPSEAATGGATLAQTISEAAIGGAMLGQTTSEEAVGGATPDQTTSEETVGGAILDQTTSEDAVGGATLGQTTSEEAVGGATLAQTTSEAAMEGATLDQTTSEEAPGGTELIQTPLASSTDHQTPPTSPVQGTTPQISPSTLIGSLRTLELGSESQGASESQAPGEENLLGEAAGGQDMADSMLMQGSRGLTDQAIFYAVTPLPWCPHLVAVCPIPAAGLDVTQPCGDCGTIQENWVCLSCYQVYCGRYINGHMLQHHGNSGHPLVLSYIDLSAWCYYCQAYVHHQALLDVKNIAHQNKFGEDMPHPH
Experimental: (§2) Enzyme inhibition assays were performed by the Reaction Biology Corporation, Malvern, PA (http://www.reactionbiology.com).

HDAC8 = target: T2, HDAC8 (Homo sapiens, UniProt Q9BY41); assay: HDAC enzyme inhibition assay, HDAC8; format: biochemical; conditions: 10-dose, 3-fold serial dilution starting at 10 μM
T2 construct: purchased Reaction Biology Corporation, Malvern, PA (contract assay service)
T2 sequence (Q9BY41 1-377): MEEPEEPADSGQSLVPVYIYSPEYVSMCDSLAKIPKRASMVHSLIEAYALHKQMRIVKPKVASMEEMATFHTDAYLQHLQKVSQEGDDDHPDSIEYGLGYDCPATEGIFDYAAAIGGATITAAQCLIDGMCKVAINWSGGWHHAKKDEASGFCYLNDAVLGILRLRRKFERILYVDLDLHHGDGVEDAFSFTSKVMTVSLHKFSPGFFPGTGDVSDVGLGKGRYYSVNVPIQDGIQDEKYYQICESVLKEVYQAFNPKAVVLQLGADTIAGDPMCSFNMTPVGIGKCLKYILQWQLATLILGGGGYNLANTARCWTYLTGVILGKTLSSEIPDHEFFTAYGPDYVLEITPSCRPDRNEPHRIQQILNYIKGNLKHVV
Experimental: as §2

[1] = tested on: phospho-ATM, CtIP, RPA32, and RAD51 in PT#3-R GBM cells; assay: Western blot of DNA repair proteins; format: cell-based, human; conditions: 72 h
Experimental: The experimental procedure was performed as described in our previous study.[41] On the day prior to the experiment, […] cells were seeded into each well of a 6-well plate. The following day, the cells were washed twice with PBS and treated with 10 μM compound 1. […] The antibody models and dilution ratios used are detailed in Table S1. Protein image collection and quantification were done by the ChemiDoc Touch Imaging System (Cat. No. 12676029, Bio-Rad Laboratories, Inc., CA, USA).

[2] = tested on: Rad51 protein in PT#3R GBM cells; assay: Immunoprecipitation and ubiquitination assay; format: cell-based, human; conditions: 24 h, IP with anti-Rad51 antibody

O=C(/C=C/c1ccc(CNC[C@H]2CN(c3ccc(N4CCOCC4)c(F)c3)C(=O)O2)cc1)NO [compound 1, (S,E)-3-(4-((((3-(3-Fluoro-4-morpholinophenyl)-2-oxooxazolidin-5-yl)methyl)ami-no)methyl)phenyl)-N-hydroxyacrylamide]
IC50 (U87MG-R): 16.6 ± 0.45 µM | IC50 (T98G (MGMT-positive)): 30.6 ± 0.56 µM | IC50 (Primary Mouse Astrocyte): 143 ± 7.9 µM | IC50 (HDAC6): 0.106 µM | IC50 (HDAC8): 0.447 µM | CtIP, RPA32 and RAD51 protein expression [1]: significant suppression | phosphorylation of ATM [1]: significant increase in the phosphorylation | Rad51 ubiquitination [2]: significant increase in Rad51 ubiquitination

Source: publication PMC11831592, “Repurposing Linezolid in Conjunction with Histone Deacetylase Inhibitor Access in the Realm of Glioblastoma Therapies” (Journal of Medicinal Chemistry, 2025)
